Source: the supplement of paper PMC10627819

How the values were obtained:
S. pneumoniae D39V [1] = experiment: Bliss interaction score (quartile over a dose matrix) (fitness difference); higher = more antagonism (negative = synergy)
In short: (§1)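 Combination data were used to infer fitness under each single drug. Fitness is the OD595 at entry into stationary phase divided by the robust mean of the plate's no-drug wells, with a cap of 1. The Bliss score is the observed minus the expected product fitness, summarised by quartiles over technical, biological and donor/recipient replicates.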

S. aureus Newman = experiment: as above
In short: as §1

S. aureus DSM 20231 [2] = experiment: as above
In short: as §1

B. subtilis 168 = experiment: as above
In short: as §1

S. pneumoniae D39V [3] = experiment: fitness (endpoint OD595 vs no drug) (fraction); higher = more growth
In short: (§2)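 In 384-well plates at 37 °C, cultures began at OD595 0.01 in 30 µl, with 55 µl used for S. pneumoniae. OD595 readings every 30 min for 14 h were corrected by the first reading. Fitness divides the stationary-phase transition optical density by the robust mean of no-drug control wells. The result is capped at 1.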

S. aureus DSM 20231 [4] = experiment: as above
In short: as §2
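Throughout, for Bliss interaction score (quartile over a dose matrix): first quartile when negative (synergy) and third quartile when positive (antagonism).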

CC1(C)S[C@@H]2[C@H](NC(=O)[C@H](N)c3ccc(O)cc3)C(=O)N2[C@H]1C(=O)O [Amoxicillin] + CC(=O)NC[C@H]1CN(c2ccc(N3CCOCC3)c(F)c2)C(=O)O1 [Linezolid]
Conditions	Bliss interaction score
B. subtilis 168	-0.0837
S. aureus DSM 20231 [2]	0.0353
S. aureus Newman	-0.0532
S. pneumoniae D39V [1]	0.225

Conditions	fitness
S. aureus DSM 20231 [4], first compound 0.0625 µg/mL, partner 0.125 µg/mL	0.652
S. aureus DSM 20231 [4], first compound 0.0625 µg/mL, partner 0.25 µg/mL	0.427
S. aureus DSM 20231 [4], first compound 0.0625 µg/mL, partner 0.5 µg/mL	0.161
S. aureus DSM 20231 [4], first compound 0.125 µg/mL, partner 0.125 µg/mL	0.368
S. aureus DSM 20231 [4], first compound 0.125 µg/mL, partner 0.25 µg/mL	0.292
S. aureus DSM 20231 [4], first compound 0.125 µg/mL, partner 0.5 µg/mL	0.0966
S. aureus DSM 20231 [4], first compound 0.25 µg/mL, partner 0.125 µg/mL	0.129
S. aureus DSM 20231 [4], first compound 0.25 µg/mL, partner 0.25 µg/mL	0.0329
S. aureus DSM 20231 [4], first compound 0.25 µg/mL, partner 0.5 µg/mL	0.0469
S. pneumoniae D39V [3], first compound 0.0008 µg/mL, partner 0.105 µg/mL	0.877
S. pneumoniae D39V [3], first compound 0.0008 µg/mL, partner 0.21 µg/mL	0.724
S. pneumoniae D39V [3], first compound 0.0008 µg/mL, partner 0.42 µg/mL	0.592
S. pneumoniae D39V [3], first compound 0.0015 µg/mL, partner 0.105 µg/mL	0.84
S. pneumoniae D39V [3], first compound 0.0015 µg/mL, partner 0.2 µg/mL	0.885
S. pneumoniae D39V [3], first compound 0.0015 µg/mL, partner 0.21 µg/mL	0.784
S. pneumoniae D39V [3], first compound 0.0015 µg/mL, partner 0.4 µg/mL	0.523
S. pneumoniae D39V [3], first compound 0.0015 µg/mL, partner 0.42 µg/mL	0.578
S. pneumoniae D39V [3], first compound 0.0015 µg/mL, partner 0.8 µg/mL	0.377
S. pneumoniae D39V [3], first compound 0.003 µg/mL, partner 0.105 µg/mL	0.811
S. pneumoniae D39V [3], first compound 0.003 µg/mL, partner 0.2 µg/mL	0.832
S. pneumoniae D39V [3], first compound 0.003 µg/mL, partner 0.21 µg/mL	0.72
S. pneumoniae D39V [3], first compound 0.003 µg/mL, partner 0.4 µg/mL	0.57
S. pneumoniae D39V [3], first compound 0.003 µg/mL, partner 0.42 µg/mL	0.507
S. pneumoniae D39V [3], first compound 0.003 µg/mL, partner 0.8 µg/mL	0.39

one replicate
Conditions	fitness
S. aureus DSM 20231 [4], first compound 0.0625 µg/mL, partner 1 µg/mL	0.0145
S. aureus DSM 20231 [4], first compound 0.125 µg/mL, partner 1 µg/mL	0.012
S. aureus DSM 20231 [4], first compound 0.25 µg/mL, partner 1 µg/mL	0.0104
S. aureus DSM 20231 [4], first compound 0.5 µg/mL, partner 0.125 µg/mL	0.0313
S. aureus DSM 20231 [4], first compound 0.5 µg/mL, partner 0.25 µg/mL	0.0362
S. aureus DSM 20231 [4], first compound 0.5 µg/mL, partner 0.5 µg/mL	0.032
S. pneumoniae D39V [3], first compound 0.0008 µg/mL, partner 0.2 µg/mL	0.875
S. pneumoniae D39V [3], first compound 0.0008 µg/mL, partner 0.4 µg/mL	0.648
S. pneumoniae D39V [3], first compound 0.0008 µg/mL, partner 0.8 µg/mL	0.419
S. pneumoniae D39V [3], first compound 0.006 µg/mL, partner 0.2 µg/mL	0.532
S. pneumoniae D39V [3], first compound 0.006 µg/mL, partner 0.4 µg/mL	0.359
S. pneumoniae D39V [3], first compound 0.006 µg/mL, partner 0.8 µg/mL	0.212

CC1(C)S[C@@H]2[C@H](NC(=O)[C@H](N)c3ccc(O)cc3)C(=O)N2[C@H]1C(=O)O [Amoxicillin] + CCC[C@@H]1C[C@@H](C(=O)N[C@@H]([C@H]2O[C@H](SC)[C@H](O)[C@@H](O)[C@H]2O)[C@@H](C)O)N(C)C1 [Lincomycin]
Conditions	Bliss interaction score
B. subtilis 168	-0.0381
S. aureus DSM 20231 [2]	-0.0436
S. aureus Newman	0.117
S. pneumoniae D39V [1]	0.227

fitness, S. pneumoniae D39V [3], one replicate
Conditions	partner 0.2 µg/mL	partner 0.4 µg/mL	partner 0.8 µg/mL
first compound 0.0008 µg/mL	0.878	0.489	0.393
first compound 0.006 µg/mL	0.484	0.216	0.143

fitness
Conditions	partner 0.1 µg/mL	partner 0.2 µg/mL	partner 0.215 µg/mL	partner 0.4 µg/mL	partner 0.43 µg/mL	partner 0.8 µg/mL	partner 0.86 µg/mL
S. aureus DSM 20231 [4], first compound 0.0625 µg/mL	0.624	0.492	–	0.213	–	–	–
S. aureus DSM 20231 [4], first compound 0.125 µg/mL	–	0.358	–	0.129	–	–	–
S. aureus DSM 20231 [4], first compound 0.25 µg/mL	0.0334	0.0486	–	0.064	–	–	–
S. aureus DSM 20231 [4], first compound 0.5 µg/mL	0.0005	0.0261	–	0.0105	–	–	–
S. pneumoniae D39V [3], first compound 0.0008 µg/mL	–	–	0.838	–	0.739	–	0.409
S. pneumoniae D39V [3], first compound 0.0015 µg/mL	–	0.847	0.878	0.54	0.744	0.312	0.437
S. pneumoniae D39V [3], first compound 0.003 µg/mL	–	0.816	0.852	0.554	0.744	0.337	0.477
